# Measured values as given in ChEMBL document CHEMBL3885861, “Open TG-GATES”.
# Species on record: Rattus norvegicus
# Test: Open TG-GATES - Regimen: Single
# Assay type: toxicity, organism-based, Sprague-Dawley
# Design: regimen Single, gender Male, age 6 weeks
# Conditions: in vivo, po, 100 mg/kg, route gavage, dose level Low; for APTT / Bas / Eos / Fbg / Hb / Ht / Lym / MCH / MCHC / MCV / Mono / Neu / PT / Plat / RBC / Ret / WBC: tissue Blood; for KIDNEY_L / KIDNEY_R / KIDNEY_TOTAL: tissue Kidney; for LIVER: tissue Liver; for A/G / ALP / ALT / AST / BUN / CRE / Ca / Cl / DBIL / GLC / IP / K / LDH / Na / PL / RALB / TBIL / TC / TG / TP / gamma-GTP: tissue Plasma
smiles,measurement,setting,value
CCOC(=O)CCC(=O)O[C@H]1[C@H](O[C@@H]2[C@@H](C)[C@H](O[C@H]3C[C@@](C)(OC)[C@@H](O)[C@H](C)O3)[C@@H](C)C(=O)O[C@H](CC)[C@@](C)(O)[C@H](O)[C@@H](C)C(=O)[C@H](C)C[C@@]2(C)O)O[C@H](C)C[C@@H]1N(C)C [ERYTHROMYCIN ETHYLSUCCINATE],TERMINAL_BW,3 h,214.5 g
same,APTT,3 h,22.9 s
same,Bas,3 h,0%
same,Eos,3 h,0.8%
same,Fbg,3 h,311.4 mg/dL
same,Hb,3 h,13.2 g/dL
same,Ht,3 h,39.7%
same,Lym,3 h,77.4%
same,MCH,3 h,21.4 pg
same,MCHC,3 h,33.2%
same,MCV,3 h,64.4 fL
same,Mono,3 h,2.6%
same,Neu,3 h,18.6%
same,PT,3 h,16.2 s
same,Plat,3 h,111.6 x10_4/uL
same,RBC,3 h,617.6 x10_4/ul
same,Ret,3 h,8.2%
same,WBC,3 h,78.3 x10_2/uL
same,KIDNEY_L,3 h,0.9 g
same,KIDNEY_R,3 h,1 g
same,KIDNEY_TOTAL,3 h,1.9 g
same,LIVER,3 h,9.9 g
same,A/G,3 h,1.2
same,ALP,3 h,1930.6 IU/L
same,ALT,3 h,47.6 IU/L
same,AST,3 h,78 IU/L
same,BUN,3 h,12.8 mg/dL
same,CRE,3 h,0.1 mg/dL
same,Ca,3 h,10.5 mg/dL
same,Cl,3 h,102.8 meq/L
same,DBIL,3 h,0.006 mg/dL
same,GLC,3 h,189.2 mg/dL
same,IP,3 h,9.1 mg/dL
same,K,3 h,3.8 meq/L
same,LDH,3 h,147.2 IU/L
same,Na,3 h,139.2 meq/L
same,PL,3 h,142.6 mg/dL
same,RALB,3 h,2.9 g/dL
same,TBIL,3 h,0.02 mg/dL
same,TC,3 h,73 mg/dL
same,TG,3 h,70.2 mg/dL
same,TP,3 h,5.5 g/dL
same,gamma-GTP,3 h,1 IU/L
same,TERMINAL_BW,6 h,213.8 g
same,APTT,6 h,22.8 s
same,Bas,6 h,0%
same,Eos,6 h,0.8%
same,Fbg,6 h,308 mg/dL
same,Hb,6 h,13.2 g/dL
same,Ht,6 h,39.8%
same,Lym,6 h,76.6%
same,MCH,6 h,20.9 pg
same,MCHC,6 h,33.1%
same,MCV,6 h,63.4 fL
same,Mono,6 h,2.6%
same,Neu,6 h,18.8%
same,PT,6 h,16 s
same,Plat,6 h,118.8 x10_4/uL
same,RBC,6 h,628 x10_4/ul
same,Ret,6 h,7.8%
same,WBC,6 h,108.5 x10_2/uL
same,KIDNEY_L,6 h,1 g
same,KIDNEY_R,6 h,1 g
same,KIDNEY_TOTAL,6 h,2 g
same,LIVER,6 h,9.2 g
same,A/G,6 h,1.1
same,ALP,6 h,1420.4 IU/L
same,ALT,6 h,40.2 IU/L
same,AST,6 h,72 IU/L
same,BUN,6 h,12 mg/dL
same,CRE,6 h,0.2 mg/dL
same,Ca,6 h,10.5 mg/dL
same,Cl,6 h,104 meq/L
same,DBIL,6 h,0 mg/dL
same,GLC,6 h,187.6 mg/dL
same,IP,6 h,9.5 mg/dL
same,K,6 h,4.2 meq/L
same,LDH,6 h,182 IU/L
same,Na,6 h,138 meq/L
same,PL,6 h,132.2 mg/dL
same,RALB,6 h,2.8 g/dL
same,TBIL,6 h,0.02 mg/dL
same,TC,6 h,69.8 mg/dL
same,TG,6 h,63.4 mg/dL
same,TP,6 h,5.3 g/dL
same,gamma-GTP,6 h,1.2 IU/L
same,TERMINAL_BW,9 h,216.4 g
same,APTT,9 h,23.3 s
same,Bas,9 h,0%
same,Eos,9 h,1%
same,Fbg,9 h,315 mg/dL
same,Hb,9 h,13.3 g/dL
same,Ht,9 h,40.4%
same,Lym,9 h,80.4%
same,MCH,9 h,21.5 pg
same,MCHC,9 h,33%
same,MCV,9 h,65 fL
same,Mono,9 h,2%
same,Neu,9 h,15.8%
same,PT,9 h,15.6 s
same,Plat,9 h,121.2 x10_4/uL
same,RBC,9 h,622 x10_4/ul
same,Ret,9 h,8%
same,WBC,9 h,73.2 x10_2/uL
same,KIDNEY_L,9 h,1 g
same,KIDNEY_R,9 h,1.1 g
same,KIDNEY_TOTAL,9 h,2.1 g
same,LIVER,9 h,9.2 g
same,A/G,9 h,1.2
same,ALP,9 h,1398.8 IU/L
same,ALT,9 h,32.4 IU/L
same,AST,9 h,64 IU/L
same,BUN,9 h,12.4 mg/dL
same,CRE,9 h,0.1 mg/dL
same,Ca,9 h,10.6 mg/dL
same,Cl,9 h,105.4 meq/L
same,DBIL,9 h,0 mg/dL
same,GLC,9 h,188.8 mg/dL
same,IP,9 h,9.5 mg/dL
same,K,9 h,4.2 meq/L
same,LDH,9 h,145.6 IU/L
same,Na,9 h,138.6 meq/L
same,PL,9 h,136 mg/dL
same,RALB,9 h,3 g/dL
same,TBIL,9 h,0.012 mg/dL
same,TC,9 h,78.2 mg/dL
same,TG,9 h,87.4 mg/dL
same,TP,9 h,5.5 g/dL
same,gamma-GTP,9 h,1.4 IU/L
same,TERMINAL_BW,24 h,222.7 g
same,APTT,24 h,21.4 s
same,Bas,24 h,0%
same,Eos,24 h,0.8%
same,Fbg,24 h,326.2 mg/dL
same,Hb,24 h,13.8 g/dL
same,Ht,24 h,41.6%
same,Lym,24 h,86.4%
same,MCH,24 h,20.6 pg
same,MCHC,24 h,33.2%
same,MCV,24 h,62.2 fL
same,Mono,24 h,3%
same,Neu,24 h,8.2%
same,PT,24 h,16 s
same,Plat,24 h,122.9 x10_4/uL
same,RBC,24 h,670 x10_4/ul
same,Ret,24 h,6.7%
same,WBC,24 h,102.3 x10_2/uL
same,KIDNEY_L,24 h,0.9 g
same,KIDNEY_R,24 h,1 g
same,KIDNEY_TOTAL,24 h,1.9 g
same,LIVER,24 h,9.5 g
same,A/G,24 h,1.3
same,ALP,24 h,1407.8 IU/L
same,ALT,24 h,43.4 IU/L
same,AST,24 h,70.4 IU/L
same,BUN,24 h,14 mg/dL
same,CRE,24 h,0.1 mg/dL
same,Ca,24 h,10.6 mg/dL
same,Cl,24 h,106.6 meq/L
same,DBIL,24 h,0.002 mg/dL
same,GLC,24 h,200.6 mg/dL
same,IP,24 h,7.7 mg/dL
same,K,24 h,4.1 meq/L
same,LDH,24 h,183.2 IU/L
same,Na,24 h,142.4 meq/L
same,PL,24 h,140.4 mg/dL
same,RALB,24 h,3.1 g/dL
same,TBIL,24 h,0.03 mg/dL
same,TC,24 h,83 mg/dL
same,TG,24 h,71.6 mg/dL
same,TP,24 h,5.5 g/dL
same,gamma-GTP,24 h,1.4 IU/L
